System: Nodal
Assay: Nodal expression in C8161 cells (Western blot, real time RT-PCR)
Assay type: cell-based, human
Conditions: anti-Nodal Morpholino
Experimental: A determination of the effects of H9 CMTX on Nodal expression in metastatic melanoma (C8161) and breast carcinoma (MDA-MB-231) cells was undertaken. […] Exposure to H9 CMTX similarly abrogates Nodal mRNA expression in the melanoma and breast carcinoma cells (FIG. 9C).
Protein lysates were prepared and quantified as previously described in Hess et al., 2001, Cancer Res. 61:3250-3255. Equal amounts of protein were separated by SDS-polyacrylamide gel electrophoresis under reducing conditions, and the resolved proteins were transferred onto Immobilon-P membranes (Millipore Corp., Bedford, Mass.). Membranes were blocked in 1% TBS, 0.1% Tween 20 (TBS-T) and 5% dry milk powder or 3% gelatin (for Nodal Westerns). Blots were incubated with anti-Nodal or anti-Lefty antibodies (Polyclonal rabbit anti-Nodal (H-110) 1:500 Santa Cruz Biotechnology, Santa Cruz, Calif.; Polyclonal goat anti-Lefty 1:500 R&D Systems, Minneapolis, Minn.), washed in TBS-T, and incubated with the appropriate horseradish peroxidase-labeled secondary antibody. Secondary antibodies were detected by enhanced chemiluminescence (Super Signal; Pierce, Rockford, Ill.) and exposure to autoradiography film (Molecular Technologies, St Louis, Mo.). Nodal protein was detected as two major bands at ˜48 and ˜35 kDa representing precursor and pro-Nodal respectively. Nodal often appeared as multiple bands, likely due to degradation of protein modifications. All experiments were done at least three times.
The derivation and phenotypic characteristics of the human melanoma cell lines have been previously described. Seftor, et. al., 2002, Clin. Experim. Metastas. 19:233-246; Seftor, et. al., 2005 Cancer Res. 65:10164-10169. The melanoma cell lines are maintained in RPMI 1640 medium (Invitrogen) supplemented with 10% fetal bovine serum (FBS, Gemini Bioproducts) and 0.1% gentamycin sulfate with the exception of C81-61 cells which are maintained in Ham's FIO medium supplemented with 15% FBS, 1X Mito+ (BD Bioscience) and gentamycin sulfate. […] The cultures are determined to be free of mycoplasma contamination using a PCR-based assay (Roche). […]

## MO^Nodal: FITC-conjugated anti-sense Morpholino to Nodal, 5′-AAGCAGCACCTCCAGCCCTTATATC-3′ [SEQ ID NO: 20] (all phosphorodiamidate morpholino (PMO); FITC conjugated, position not given here)
  Nodal expression: down-regulation of Nodal
